The target of assay [1] is Recombinant human Cbl-b (aa 36-427) (Homo sapiens, UniProt Q13191). The experiment in a line: Cbl-b Biochemical Assay (TR-FRET). The settings on record: read-out: TR-FRET hCbl-b IC50.
For assay [2], the system named is Jurkat (clone E6-1) cells with NFAT luciferase reporter. The experiment in a line: Jurkat reporter assay (NFAT Luciferase). The format is cell-based. As to conditions: Homo sapiens; Jurkat NFAT luciferase reporter cells, anti-CD3 stimulation, 6 hr; read-out: Jurkat NFAT EC50.
Assay [3] deals with T1, Recombinant human c-Cbl (aa 47-435) (Homo sapiens, UniProt P22681).
T1 sequence (P22681 47-435): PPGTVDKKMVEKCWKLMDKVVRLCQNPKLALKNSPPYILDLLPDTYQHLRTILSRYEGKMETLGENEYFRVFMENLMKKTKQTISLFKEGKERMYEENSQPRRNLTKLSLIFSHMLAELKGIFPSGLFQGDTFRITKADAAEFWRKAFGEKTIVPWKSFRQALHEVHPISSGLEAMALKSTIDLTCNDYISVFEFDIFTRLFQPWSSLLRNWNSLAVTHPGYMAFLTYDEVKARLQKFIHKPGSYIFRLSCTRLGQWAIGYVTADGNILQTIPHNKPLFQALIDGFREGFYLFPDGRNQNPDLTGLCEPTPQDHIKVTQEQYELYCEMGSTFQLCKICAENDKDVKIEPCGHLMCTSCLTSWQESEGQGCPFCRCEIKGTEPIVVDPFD
The experiment in a line: c-Cbl Biochemical Assay (TR-FRET). The settings on record: hc-Cbl Biochemical Assay (TR-FRET); read-out: TR-FRET hcCbl IC50.

Some results are limits rather than exact numbers.

Chain of Recombinant human Cbl-b (aa 36-427) (Q13191 36-427): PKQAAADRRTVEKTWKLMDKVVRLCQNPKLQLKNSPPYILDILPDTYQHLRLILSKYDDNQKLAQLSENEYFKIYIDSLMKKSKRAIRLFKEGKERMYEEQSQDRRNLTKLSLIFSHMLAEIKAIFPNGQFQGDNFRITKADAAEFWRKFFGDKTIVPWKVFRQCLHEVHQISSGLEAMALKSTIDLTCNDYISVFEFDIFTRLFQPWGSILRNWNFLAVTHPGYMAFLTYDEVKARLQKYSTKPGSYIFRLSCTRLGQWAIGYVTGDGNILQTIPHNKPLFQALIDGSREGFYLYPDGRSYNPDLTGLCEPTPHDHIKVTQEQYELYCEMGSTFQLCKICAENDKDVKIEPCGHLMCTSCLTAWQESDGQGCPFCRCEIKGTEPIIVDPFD

In the case of `CON(C)C(=O)c1cc(C(F)(F)F)c2oc(-c3cccc(-c4ccc(F)cc4-c4nncn4C)c3)nc2c1` [DJ-2, 2-(4′-Fluoro-2′-(4-methyl-4H-1,2,4-triazol-3-yl)-[1,1′-biphenyl]-3-yl)-N-methoxy-N-methyl-7-(trifluoromethyl)benzo[d]oxazole-5-carboxamide], the IC50 in assay [1] was < 200 nM; in assay [3], 200 to 1000 nM. The EC50 in assay [2] was in the range of 1000 to 10000 nM.

Regarding `Cn1cnnc1-c1cc(F)ccc1-c1cccc(-c2nc3cc(CNC[C@H]4CCCO4)cc(C(F)(F)F)c3o2)c1` [EU-2, (R)-1-(2-(4′-Fluoro-2′-(4-methyl-4H-1,2,4-triazol-3-yl)-[1,1′-biphenyl]-3-yl)-7-(trifluoromethyl)benzo[d]oxazol-5-yl)-N-((tetrahydrofuran-2-yl)methyl)methanamine], the IC50 in assay [1] and in assay [3] was < 200 nM throughout. For the same molecule, the concentration for a half-maximal effect (EC50) in assay [2] was < 200 nM.

As for `Cn1cnnc1-c1cc(F)ccc1-c1cc(-c2nc3cc(CNCC(C)(C)O)c(F)c(F)c3o2)nc(C2CC2)c1` [AGF-1, 1-{[(2-{6-Cyclopropyl-4-[4-fluoro-2-(4-methyl-1,2,4-triazol-3-yl)phenyl]pyridin-2-yl}-6,7-difluoro-1,3-benzoxazol-5-yl)methyl]amino}-2-methylpropan-2-ol], the IC50 in assay [1] and in assay [3] was < 200 nM in each case. Also, in assay [2], the EC50 is < 200 nM.

As for `C[C@H](O)CNCc1cc(F)c2oc(-c3cccc(-c4ccc(F)cc4-c4nncn4C)c3)nc2c1` [JP-1, (S)-1-(((7-Fluoro-2-(4′-fluoro-2′-(4-methyl-4H-1,2,4-triazol-3-yl)-[1,1′-biphenyl]-3-yl)benzo[d]oxazol-5-yl)methyl)amino)propan-2-ol], the IC50 in assay [1] and in assay [3] was < 200 nM throughout. Moreover, in assay [2], the concentration giving a half-maximal response (EC50) was < 200 nM.

In the case of `CN(C)C(=O)CNCc1cc(C(F)(F)F)c2oc(-c3cccc(-c4ccc(F)cc4-c4nncn4C)c3)nc2c1` [EI-4, 2-(((2-(4′-Fluoro-2′-(4-methyl-4H-1,2,4-triazol-3-yl)-[1,1′-biphenyl]-3-yl)-7-(trifluoromethyl)benzo[d]oxazol-5-yl)methyl)amino)-N,N-dimethylacetamide], the IC50 in assay [1] is < 200 nM; in assay [3], 200 to 1000 nM. In assay [2], the EC50 is 200 to 1000 nM.

Regarding `COCCN(Cc1cc(C(F)(F)F)c2oc(-c3cccc(-c4ccc(F)cc4-c4nncn4C)c3)nc2c1)CC(C)(C)O` [EZ-3], the values for the IC50 in assay [1] and in assay [3] were < 200 nM and 200 to 1000 nM, respectively. In addition, the EC50 in assay [2] fell in the range of 1000 to 10000 nM.

Turning to `Cn1cnnc1-c1cc(F)ccc1-c1cccc(-c2nc3nc(CN[C@@H]4CCC[C@@H]4O)ccc3o2)c1` [IB-7, (1S,2R)-2-(((2-(4′-Fluoro-2′-(4-methyl-4H-1,2,4-triazol-3-yl)-[1,1′-biphenyl]-3-yl)oxazolo[4,5-b]pyridin-5-yl)methyl)amino)cyclopentan-1-ol], the IC50 in assay [1] is < 200 nM; in assay [3], 200 to 1000 nM. Besides, in assay [2], the EC50 lay in the range of 1000 to 10000 nM.

`Cn1cnnc1-c1cc(F)ccc1-c1cccc(-c2nc3cc(CN[C@H]4CCC[C@H]4O)cc(C(F)(F)F)c3o2)c1` [HI-2, (1R,2S)-2-(((2-(4′-Fluoro-2′-(4-methyl-4H-1,2,4-triazol-3-yl)-[1,1′-biphenyl]-3-yl)-7-(trifluoromethyl)benzo[d]oxazol-5-yl)methyl)amino)cyclopentan-1-ol]: the IC50 in assay [1] and in assay [3] was < 200 nM in each case. In assay [2], the EC50 is < 200 nM.

As for `C[C@H](NCc1cc(C(F)(F)F)c2oc(-c3cccc(-c4ccc(F)cc4-c4nncn4C)c3)nc2c1)C1CCC1` [GW-2, (S)-1-Cyclobutyl-N-((2-(4′-fluoro-2′-(4-methyl-4H-1,2,4-triazol-3-yl)-[1,1′-biphenyl]-3-yl)-7-(trifluoromethyl)benzo[d]oxazol-5-yl)methyl)ethan-1-amine], the concentration for half-maximal inhibition (IC50) in assay [1] and in assay [3] was < 200 nM throughout. Further, the EC50 in assay [2] was < 200 nM.

Consider `Cc1cc(CN[C@@H]2CCC[C@@H]2O)cc2nc(-c3cccc(-c4ccc(F)cc4-c4nncn4C)c3)oc12` [FG-2, (1S,2R)-2-(((2-(4′-Fluoro-2′-(4-methyl-4H-1,2,4-triazol-3-yl)-[1,1′-biphenyl]-3-yl)-7-methylbenzo[d]oxazol-5-yl)methyl)amino)cyclopentan-1-ol], for which the IC50 in assay [1] and in assay [3] was < 200 nM in each case. Further, in assay [2], the EC50 was < 200 nM.

In the case of `[2H]C([2H])([2H])N(Cc1cc(C(F)(F)F)c2oc(-c3cccc(-c4ccc(F)cc4-c4nncn4C)c3)nc2c1)[C@@H]1CCC[C@@H]1O` [IT-1, (1S,2R)-2-(((2-(4′-Fluoro-2′-(4-methyl-4H-1,2,4-triazol-3-yl)-[1,1′-biphenyl]-3-yl)-7-(trifluoromethyl)benzo[d]oxazol-5-yl)methyl)(methyl-d3)amino)cyclopentan-1-ol], the IC50 in assay [1] and in assay [3] was < 200 nM throughout. Besides, the EC50 in assay [2] is < 200 nM.

Consider `COCC(C)(C)NCc1cc(C(F)(F)F)c2oc(-c3cccc(-c4ccc(F)cc4-c4nncn4C)c3)nc2c1` [EO-2, N-((2-(4′-Fluoro-2′-(4-methyl-4H-1,2,4-triazol-3-yl)-[1,1′-biphenyl]-3-yl)-7-(trifluoromethyl)benzo[d]oxazol-5-yl)methyl)-1-methoxy-2-methylpropan-2-amine], for which the IC50 was < 200 nM in assay [1] and 200 to 1000 nM in assay [3]. In assay [2], the EC50 was in the range of 1000 to 10000 nM.

On to `C[C@H](Cc1nncn1C)c1cccc(-c2nc3ccc(Br)c(C(F)(F)F)c3[nH]2)c1` [AV-9, (R)-6-Bromo-2-(3-(1-(4-methyl-4H-1,2,4-triazol-3-yl)propan-2-yl)phenyl)-7-(trifluoromethyl)-1H-benzo[d]imidazole], for which the IC50 was 200 to 1000 nM in assay [1] and 10000 to 50000 nM in assay [3]. In assay [2], the EC50 was 1000 to 10000 nM.

On to `Cn1cnnc1-c1cc(F)ccc1-c1cccc(-c2nc3cc(CN4C[C@@H]5C[C@H]4CO5)cc(C(F)(F)F)c3o2)c1` [IN-2, 5-(((1S,4S)-2-Oxa-5-azabicyclo[2.2.1]heptan-5-yl)methyl)-2-(4′-fluoro-2′-(4-methyl-4H-1,2,4-triazol-3-yl)-[1,1′-biphenyl]-3-yl)-7-(trifluoromethyl)benzo[d]oxazole], for which the half-inhibitory concentration (IC50) in assay [1] and in assay [3] was 1000 to 10000 nM each time. Further, in assay [2], the EC50 fell in the range of 1000 to 10000 nM.

Take `Cn1cnnc1-c1cc(F)ccc1-c1cccc(-c2nc3cc(CNC[C@@]4(C)CCO4)cc(C(F)(F)F)c3o2)c1` [HL-2, (R)-1-(2-(4′-Fluoro-2′-(4-methyl-4H-1,2,4-triazol-3-yl)-[1,1′-biphenyl]-3-yl)-7-(trifluoromethyl)benzo[d]oxazol-5-yl)-N-((2-methyloxetan-2-yl)methyl)methanamine]: the IC50 in assay [1] and in assay [3] was < 200 nM each time. Also, the EC50 in assay [2] was 200 to 1000 nM.

For the molecule `CO[C@H]1CCN(Cc2cc(C(F)(F)F)c3oc(-c4cccc(-c5ccc(F)cc5-c5nncn5C)c4)nc3c2)C1` [AB-2, (S)-2-(4′-Fluoro-2′-(4-methyl-4H-1,2,4-triazol-3-yl)-[1,1′-biphenyl]-3-yl)-5-((3-methoxypyrrolidin-1-yl)methyl)-7-(trifluoromethyl)benzo[d]oxazole], the 50% inhibitory concentration (IC50) is < 200 nM in assay [1] and 1000 to 10000 nM in assay [3]. For the same molecule, the EC50 in assay [2] lay within 1000 to 10000 nM.

These data come from US20250163038A1, “CBL-B MODULATORS AND USES THEREOF” (Nimbus Clio, Inc., priority 2021, published 2025).
